Laboratory results as given in patent publication US20260200931A1, “PYRIDINE POLYCYCLIC COMPOUND INHIBITOR, PREPARATION METHOD THEREFOR AND USE THEREOF” (SHANGHAI HANSOH BIOMEDICAL CO., LTD, priority 2022, published 2026).

Columns and labels:
aldosterone = assay: In vivo efficacy assay, ACTH challenge: plasma aldosterone; parameters: species or system cynomolgus monkeys; conditions: for Aldosterone, 0: 0 hour after 5 μg/kg ACTH I.V. (given one hour after dosing); for Aldosterone, 0.5 h: 0.5 h after 5 μg/kg ACTH I.V.
Experimental: (§1) Male cynomolgus monkeys were gavaged (P.O.) with the compounds to be tested and divided into 0 mpk (vehicle group), 0.1 mpk, 0.3 mpk, 1 mpk, and 3 mpk dose groups. Each group was given 5 μg/kg ACTH intravenous injection (I.V.) after one hour. Blood samples were collected at −1 hour, 0 hour, 0.5 hours, 1.0 hour, 1.5 hours, 2 hours, and 3 hours after intravenous injection of ACTH. The volume was about 0.5 mL at each time point. The samples were centrifuged (3200 g, at 2-8° C. for 10 minutes) within one hour after collection. The contents of the plasma aldosterone, cortisol, corticosterone, 11-deoxycortisol, and 11-deoxycorticosterone at each time point were then analyzed by LC/MS-MS method.

[1] = Pharmacokinetic assay in mice; assay type: in vivo; conditions: mouse, male Balb/c mice, plasma, table does not print the route (objective: oral administration, PO 5 mg/kg)
Experimental: Balb/c mice were used as test animals to study the pharmacokinetic behavior of the compounds of the present disclosure in mice (plasma) after oral administration.
Compounds of the present disclosure, made in house.
3 Balb/c mice per group, male; from Shanghai Bk Lab Animal Co., Ltd., with animal production license number (SCXK (Shanghai) 2013-0006 N0.311620400001794).
0.5 g of sodium carboxymethyl cellulose (CMC-Na, viscosity: 800-1200 Cps) was weighed and dissolved in 99 mL of purified water, and 1 ml of Tween 80 was added. These materials were uniformly mixed to form a clear solution.
Examples 1 and 2 were weighed and dissolved in the solution, and the mixtures were shaken well and ultrasonicated for 15 min to obtain colorless clear solutions with a concentration of 0.5 mg/mL.
Examples 1 and 2 were weighed, and 5% of DMSO was added based on the total administration volume; the mixture was vortexed and ultrasonicated for 2 min to ensure complete dissolution; then, 10% Solutol HS15 was added, and the mixture was vortexed and ultrasonicated for 2 min to achieve complete dissolution; finally, 85% PBS was added, and the mixture was vortexed and ultrasonicated for 5 min; the resulting mixture was filtered through a […] filter membrane to obtain a colorless, transparent, and clear solution with a concentration of 0.2 mg/mL.
After overnight fasting, 3 male Balb/c mice per group were administered orally (PO) at a dose of 5 mg/kg with an administration volume of 10 mL/kg.
After overnight fasting, 3 male Balb/c mice per group were administered intravenously (IV) at a dose of 1 mg/kg with an administration volume of 5 mL/kg.
0.04 mL of blood was collected from the orbit of the experimental animals before administration and at 0.25 h, 0.5 h, 1.0 h, 2.0 h, 4.0 h, 6.0 h, 8.0 h, and 24.0 h after administration and placed in an EDTA-2K test tube, and the test tube was centrifuged at 8000 rpm for 6 min at 4° C. to separate the plasma, which was stored at −80° C.; and the animals were fed 4 h after administration.
The final determination results were obtained by using LCMS/MS method.

human CYP11B2 = target: T1, human CYP11B2 (Homo sapiens, UniProt P19099); assay: G-402 cell enzyme experiment, human CYP11B2 (aldosterone production, HTRF); assay type: cell-based; conditions: G-402 cells stably expressing human CYP11B2; 1 μM 11-deoxycorticosterone; 16 h; aldosterone by HTRF
T1 construct: The main elements of an expression plasmid include ORF of human CYP11B1 or human CYP11B2; expressed in transfected cells
T1 sequence (P19099 25-503): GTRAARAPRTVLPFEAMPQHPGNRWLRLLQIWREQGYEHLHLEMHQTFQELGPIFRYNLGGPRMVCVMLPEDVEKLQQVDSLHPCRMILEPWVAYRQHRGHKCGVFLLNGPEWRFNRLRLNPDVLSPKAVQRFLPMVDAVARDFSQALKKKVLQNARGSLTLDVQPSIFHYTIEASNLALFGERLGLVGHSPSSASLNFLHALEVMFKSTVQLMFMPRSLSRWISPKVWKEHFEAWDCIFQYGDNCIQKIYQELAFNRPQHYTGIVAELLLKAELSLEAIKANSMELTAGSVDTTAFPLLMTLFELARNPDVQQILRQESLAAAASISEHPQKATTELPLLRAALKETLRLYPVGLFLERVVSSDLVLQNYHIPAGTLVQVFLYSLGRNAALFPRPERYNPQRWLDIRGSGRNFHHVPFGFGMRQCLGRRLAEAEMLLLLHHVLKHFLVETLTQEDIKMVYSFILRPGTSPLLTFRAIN
From the text: (§2) G-402 cell line was used as host cells to express (by transient or stable transfection) an enzyme of the human CYP11 family. Specifically, G-402 cell lines stably expressing human CYP11B1 and human CYP11B2 were established respectively. […] Therefore, the G-402 cell line is very suitable as a host cell for the ectopic expression of an enzyme of the CYP11 family.
(§3) The G-402 cell line, originally derived from renal myoblastoma, can be obtained from ATCC (CRL-1440). The main elements of an expression plasmid include ORF of human CYP11B1 or human CYP11B2, a suitable promoter (CMV promoter), and a suitable resistance marker (neomycin). The expression plasmid was transfected into G-402 cells by standard technology, and a specific antibiotic was then given for screening. The activity of the enzyme expressed by the screened monoclonal cells was assessed by 11-deoxycorticosterone (substrate of CYP11B2) and 11-deoxycortisol (substrate of CYP11B1).
(§4) The G-402 cells expressing CYP11 plasmid, as established in the above solution, were cultured in McCoy's 5a Modified Medium (ATCC Catalog No. 30-2007) containing 10% FCS and 400 μg/ml G418 in an incubator at 37° C. and 5% CO2. A cell enzyme experiment was carried out using DMEM/F12 medium containing 2.5% charcoal-treated FBS and an appropriate concentration of a substrate (1 μM 11-deoxycorticosterone or 1 μM 11-deoxycortisol). In order to detect the activity of the enzyme in the cells, the cells were plated in a 96-well plate and incubated for 16 h. The supernatant was then transfered and analyzed for the concentration of the expected product (the product of CYP11B2: aldosterone; the product of CYP11B1: cortisol). The concentrations of these products were determined by an HTRF experiment of CisBio.
(§5) In the cell enzyme experiment, the inhibitory effect of the test compound on the generated product can reflect the inhibitory effect thereof on the enzyme. The dose-dependent inhibition of the enzyme activity by the compound was calculated by plotting the concentration of the test compound (x axis) versus the measured product level (y axis). Then, the original data was fitted to a 4-parameter sigmoidal function (Morgan-Mercer-Flodin, MMF model) by least square method: y=(AB+Cx^D)/(B+x^D) in which A is the maximum y value, B is the EC50 determined by XLFit, C is the minimum y value, and D is the slope value. The maximum value A corresponds to the amount of the product detected without an inhibitor, and C corresponds to the amount of the product detected in the G402 cells expressing an empty plasmid.
(§6) The EC50 value of the compound of the present patent was determined by the above G-402 experiment system. […]

human CYP11B1 = target: T2, human CYP11B1 (Homo sapiens, UniProt P15538); assay: G-402 cell enzyme experiment, human CYP11B1 (cortisol production, HTRF); selectivity of CYP11B2 over CYP11B1; assay type: cell-based; conditions: G-402 cells expressing human CYP11B1 or CYP11B2; selectivity for CYP11B2 over CYP11B1
T2 construct: The main elements of an expression plasmid include ORF of human CYP11B1 or human CYP11B2; expressed in transfected cells
T2 sequence (P15538 25-503): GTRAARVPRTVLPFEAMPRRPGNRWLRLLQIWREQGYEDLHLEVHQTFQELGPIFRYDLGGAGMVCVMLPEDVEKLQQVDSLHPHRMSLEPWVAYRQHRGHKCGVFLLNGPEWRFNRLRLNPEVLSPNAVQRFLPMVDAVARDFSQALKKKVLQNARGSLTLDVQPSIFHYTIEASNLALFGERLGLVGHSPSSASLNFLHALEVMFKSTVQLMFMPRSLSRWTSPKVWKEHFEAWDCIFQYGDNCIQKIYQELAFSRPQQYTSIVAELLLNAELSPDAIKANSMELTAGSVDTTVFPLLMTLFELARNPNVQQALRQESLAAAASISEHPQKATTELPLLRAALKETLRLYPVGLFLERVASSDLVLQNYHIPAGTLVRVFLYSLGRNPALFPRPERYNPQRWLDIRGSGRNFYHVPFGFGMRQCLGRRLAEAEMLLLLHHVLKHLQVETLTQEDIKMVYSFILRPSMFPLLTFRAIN
From the text: as §2, §3, §4, §5, §6

cortisol = assay: In vivo efficacy assay, ACTH challenge: plasma cortisol; parameters: species or system cynomolgus monkeys; conditions: for Cortisol, 0: 0 hour after 5 μg/kg ACTH I.V. (given one hour after dosing); for Cortisol, 1 h: 1 h after 5 μg/kg ACTH I.V.
Experimental: as §1

Compound: CCC(=O)N[C@@H]1CCCc2c(-c3ccc4c(c3)COC(=O)N4C)cncc21 [Example 1-A]
- Aldosterone, 0 (aldosterone; 0.1 mpk P.O.): 0.38 ng/mL
- Aldosterone, 0.5 h (aldosterone; 0.1 mpk P.O.): 0.33 ng/mL
- Aldosterone, 0 (aldosterone; 0.3 mpk P.O.): 0.23 ng/mL
- Aldosterone, 0.5 h (aldosterone; 0.3 mpk P.O.): 0.17 ng/mL
- Aldosterone, 0 (aldosterone; 1 mpk P.O.): 0.12 ng/mL
- Aldosterone, 0.5 h (aldosterone; 1 mpk P.O.): 0.15 ng/mL
- Aldosterone, 0 (aldosterone; 3 mpk P.O.): 0.13 ng/mL
- Aldosterone, 0.5 h (aldosterone; 3 mpk P.O.): 0.09 ng/mL
- AUC(0-inf) [1]: 20800 ng·h/mL
- AUC(0-t) [1]: 20800 ng·h/mL
- Cmax [1]: 3770 ng/mL
- Tmax [1]: 0.3 h
- half-life [1]: 2.7 h
- MRT inf ([1]; read-out: MRT0-∞): 4.7 h
- EC50 (human CYP11B2): 70 nM
- hsF (human selective factor: ratio of CYP11B1 EC50 to CYP11B2 EC50) (human CYP11B1): 144×
- Cortisol, 0 (cortisol; 0.1 mpk P.O.): 246 ng/mL
- Cortisol, 1 h (cortisol; 0.1 mpk P.O.): 360 ng/mL
- Cortisol, 0 (cortisol; 0.3 mpk P.O.): 230 ng/mL
- Cortisol, 1 h (cortisol; 0.3 mpk P.O.): 355 ng/mL
- Cortisol, 0 (cortisol; 1 mpk P.O.): 215 ng/mL
- Cortisol, 1 h (cortisol; 1 mpk P.O.): 315 ng/mL
- Cortisol, 0 (cortisol; 3 mpk P.O.): 225 ng/mL
- Cortisol, 1 h (cortisol; 3 mpk P.O.): 326 ng/mL

Compound: CCC(=O)N[C@@H]1CCCc2c(-c3ccc4c(c3)OCC(=O)N4C)cncc21 [Example 2-A]
- hsF (human selective factor: ratio of CYP11B1 EC50 to CYP11B2 EC50) (human CYP11B1): 174×

Compound: CN1C(=O)CCc2cc(-c3cncc4c3CCC[C@H]4NC(=O)CC34CC(C3)C4)ccc21 [Example 37]
- EC50 (human CYP11B2): 35 nM

Compound: CCS(=O)(=O)N1CC(Oc2cncc(-c3ccc4c(c3)COC(=O)N4C)c2)C1 [Example 58, 6-(5-((1-(Ethylsulfonyl)azetidin-3-yl)oxy)pyridin-3-yl)-1-methyl-1,4-dihydro-2H-benzo[d][1,3]oxazin-2-one]
- EC50 (human CYP11B2): 48 nM

Compound: CN1C(=O)OCc2cc(-c3cncc(N4CC5(CN(C(=O)c6cnn(C)c6)C5)C4)c3)ccc21 [Example 60, 1-Methyl-6-(5-(6-(1-methyl-1H-pyrazole-4-carbonyl)-2,6-diazaspiro[3.3]heptan-2-yl)pyridin-3-yl)-1,4-dihydro-2H-benzo[d][1,3]oxazin-2-one]
- hsF (human selective factor: ratio of CYP11B1 EC50 to CYP11B2 EC50) (human CYP11B1): >1279×

Compound: CN1C(=O)OCc2cc(-c3cncc(C4=CCN(S(=O)(=O)C5CC5)CC4)c3)ccc21 [Example 68, 6-(1′-(Cyclopropylsulfonyl)-1′,2′,3′,6′-tetrahydro-[3,4′-bipyridine]-5-yl)-1-methyl-1,4-dihydro-2H-benzo[d][1,3]oxazin-2-one]
- EC50 (human CYP11B2): 7 nM
- hsF (human selective factor: ratio of CYP11B1 EC50 to CYP11B2 EC50) (human CYP11B1): 394×
